According to patent publication US10844062B2, “Pyridine derivative inhibiting RAF kinase and vascular endothelial growth factor receptor, method for preparing same, pharmaceutical composition containing same, and use thereof” (SAMJIN PHARMACEUTICAL CO., LTD., priority 2016, dated 2020):
pIC50: −log10 of the molar value. Where two headings read alike, the source gives them in different places.

Key:
LS513 KRAS G12V (colon) = assay: MTT assay; type: cell-based; details: Homo sapiens, LS-513, 72 h, 3 days incubation, read-out: MTT assay IC50 KRAS mutant (Colon) LS513 KRAS G12V
Summary of the method: (§1)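 Cells were seeded at line-dependent density and stabilised overnight at 37 °C, then exposed to compounds for 3 days at 37 °C. MTT was then added for 2 h and the formazan dissolved in DMSO.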

SW620 KRAS G12V (colon) = assay: MTT assay; type: cell-based; details: Homo sapiens, SW-620, 72 h; Table 5; 3 days incubation; read-out: MTT assay IC50 KRAS mutant (Colon) SW620 KRAS G12V
Summary of the method: as §1

[1] = test system: A-375P BRAF V600E (melanoma); assay: MTT assay; type: cell-based; details: A375P, 72 h; Table 5; 3 days incubation
Summary of the method: as §1

WiDR BRAF V600E (colon) = assay: MTT assay; type: cell-based; details: Homo sapiens, 72 h, Table 5, 3 days incubation, read-out: MTT assay IC50 BRAF mutant (Colon) WiDR BRAF V600E
Summary of the method: as §1

HUVEC (VEGF) = assay: MTT assay; type: cell-based; details: Homo sapiens, 72 h, Table 5, 3 days incubation
Summary of the method: as §1

[2] = test system: HCT-116 KRAS G13D (colon); assay: MTT assay; type: cell-based; details: Homo sapiens, HCT-116, 72 h; Table 5; 3 days incubation; read-out: MTT assay IC50 KRAS mutant (Colon) HCT-116 KRAS G13D
Summary of the method: as §1

B-Raf V600E = B-Raf V600E (Homo sapiens (Human), UniProt P15056, V600E); assay: Raf kinase inhibitory activity (Raf/MEK1/MAPK2 cascade, MBP phosphorylation, 32P); type: biochemical
Experimental: (§2) In order to examine the inhibitory activities of the compounds of the present invention against Raf kinases (B-Raf, C-Raf, B-Raf^V600E), the following experiment was performed.
(§3) (1) Consecutive Signal Transduction Reaction
(§4) To a centrifugation tube, 20 μl of a dilution solvent (20 mM MOPS, pH 7.2, 25 mM (3-glycerol phosphate, 5 mM EGTA, 1 mM sodium orthovanadate, 1 mM dithiothreitol) and 20 μl of a Mg/ATP mixture (500 μM ATP and 75 mM magnesium chloride) were added. Then, each of the derivative compounds of formula 1 was added. As a control, 1 ng of activated raf, 0.4 ng of inactivated MEK1 and 1 μg of inactivated MAPK2 were added without adding Example compounds. The solutions in the tube were concentrated at the bottom of the tube by centrifugation, and then allowed to react at 30° C. for 30 minutes, and 4 μl of the mixture solution was taken and used in the next experimental step.
(§5) (2) Phosphorylation of Substrate Protein MBP by MAPK2
(§6) To 4 μl of the mixture solution taken in (1), 10 μl of a dilution solvent, 20 μg of MBP as a substrate, and 10 μl of diluted [γ-32P]ATP (1 μCi/μL) were added. The solutions in the tube were concentrated at the bottom of the tube by centrifugation, and then allowed to react at 30° C. for 30 minutes. 25 μl of the reaction solution was carefully placed on the center of 2 cm×2 cm P81 filter paper for 30 seconds. Next, the filter paper was washed three times with 0.75% phosphoric acid solution for 10 minutes each time and washed once with acetone for 5 minutes. Next, the filter paper was transferred into a scintillation vial, and 5 ml of a scintillation cocktail was added thereto. Raf activity inhibition rate (IC50) was measured by reading the radioactivity with a scintillation counter in comparison with the control.

C-Raf = C-Raf (Homo sapiens (Human), UniProt P04049); assay: as above; type: biochemical
Experimental: as §2, §3, §4, §5, §6

B-Raf = B-Raf (Homo sapiens (Human), UniProt P15056); assay: as above; type: biochemical
Experimental: as §2, §3, §4, §5, §6

[3] = test system: SK-MEL2 NRAS Q61R (melanoma); assay: MTT assay; type: cell-based; details: Homo sapiens, SK-MEL-2, 72 h; Table 5; 3 days incubation
Summary of the method: as §1

[4] = test system: LS513 human colorectal cancer cell line xenograft; assay: Antitumor effect on human colorectal cancer LS513 cell line xenograft; type: in vivo, Balb/c nu/nu nude mice; details: oral, twice a day, 14 days
Text: In this experiment, 5 to 6-week-old female Balb/c nu/nu nude mice (weighed 18 to 20 g) were used. The mice were provided from Nara Biotech Co., Ltd. During the experiment, all the animals were housed on a mouse constant temperature/constant humidity shelf (Individually Ventilated Cages System, LAB & BIO).
Each cage (37.2 cm length×19.2 cm width×13.1 cm height) was sterilized with a sterilizer, and eight mice were received in each cage. The mice were maintained in a hygienic environment controlled to a temperature of 20 to 24° C. and a humidity of 40 to 70% with a 12-hr light/12-hr dark cycle. The mice were allowed to access sterilized feed and drinking water ad libitum. The care and treatment of these animals were carried out according to the Laboratory Animal Care Guidelines of Samjin Pharmaceutical Co., Ltd.
The mice were acclimated to the housing facility for 1 week, and then 0.1 mL of a cell suspension containing 1×10^7 cells was injected subcutaneously into the right flank of each mouse. After cell transplantation, the volume of the formed tumor was measured, and mice with formed tumors having a volume of 150 mm^3 or more were randomly divided into groups (each consisting of 7 to 8 animals) for treatment with the test compounds and a control. […] Administration of the drugs was continued for 14 days. […] At 3-day intervals from the starting day of the administration, the long axis and short axis of the tumor were measured with digital vernier calipers, and the tumor volume was calculated using the following equation and recorded: Tumor volume (TV)=Long axis×short axis^2/2.
Tumor growth inhibition for absolute tumor volume was calculated using the following equation. In the following equation, V0 is the tumor volume on the first day of drug administration (day 0), and Vt is the tumor volume after last drug administration.

[5] = biological target: VEGFR-2 tyrosine kinase (KDR) (Homo sapiens (Human), UniProt P35968); assay: VEGFR-2 tyrosine kinase inhibitory activity (ADP-Glo kinase assay); type: biochemical; details: KDR 50 ng
Experimental: The inhibitory activities of the compounds of the present invention against VEGFR-2 tyrosine kinase were analyzed using ADP-Glo™ kinase assay kit commercially available from Promega. In the principle of the analysis, kinase, a substrate and ATP are reacted with one another, and then ADP-Glo™ solution is added thereto. The ATP is removed while leaving the produced ADP, and the remaining ADP is converted to ATP by use of a kinase detection reagent, and the ATP is reacted with a luciferin substrate, and the emitted luminescence is measured.
Reaction time: 30 min (30° C.)/40 min/30 min;

[6] = test system: LS513 human colorectal cancer cell line xenograft; assay: Antitumor effect on human colorectal cancer LS513 cell line xenograft; type: in vivo, Balb/c nu/nu nude mice; details: oral

Sequence of B-Raf V600E (P15056 whole entry V600E): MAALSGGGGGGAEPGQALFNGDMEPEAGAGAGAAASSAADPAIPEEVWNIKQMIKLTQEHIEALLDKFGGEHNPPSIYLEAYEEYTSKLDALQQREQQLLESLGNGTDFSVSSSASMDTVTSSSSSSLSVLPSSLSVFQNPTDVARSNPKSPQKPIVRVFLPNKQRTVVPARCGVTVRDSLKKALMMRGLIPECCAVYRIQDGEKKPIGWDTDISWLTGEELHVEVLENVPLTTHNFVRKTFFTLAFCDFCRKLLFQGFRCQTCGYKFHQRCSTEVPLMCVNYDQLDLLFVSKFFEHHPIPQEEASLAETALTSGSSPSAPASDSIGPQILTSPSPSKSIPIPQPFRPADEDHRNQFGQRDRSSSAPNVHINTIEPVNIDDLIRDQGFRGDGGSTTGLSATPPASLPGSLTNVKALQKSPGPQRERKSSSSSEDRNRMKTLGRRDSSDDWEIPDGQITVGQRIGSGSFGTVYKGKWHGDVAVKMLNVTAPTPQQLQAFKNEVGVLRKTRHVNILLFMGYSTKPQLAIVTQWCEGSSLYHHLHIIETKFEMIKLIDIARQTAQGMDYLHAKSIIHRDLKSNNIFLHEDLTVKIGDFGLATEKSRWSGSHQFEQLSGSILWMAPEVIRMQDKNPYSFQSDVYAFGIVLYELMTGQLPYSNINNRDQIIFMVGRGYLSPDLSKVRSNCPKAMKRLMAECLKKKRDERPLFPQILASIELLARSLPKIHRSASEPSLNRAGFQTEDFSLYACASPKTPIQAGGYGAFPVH
Sequence of B-Raf (P15056 whole entry): as the sequence (P15056 whole entry V600E) above, with E600V counted along it
Sequence of C-Raf (P04049 whole entry): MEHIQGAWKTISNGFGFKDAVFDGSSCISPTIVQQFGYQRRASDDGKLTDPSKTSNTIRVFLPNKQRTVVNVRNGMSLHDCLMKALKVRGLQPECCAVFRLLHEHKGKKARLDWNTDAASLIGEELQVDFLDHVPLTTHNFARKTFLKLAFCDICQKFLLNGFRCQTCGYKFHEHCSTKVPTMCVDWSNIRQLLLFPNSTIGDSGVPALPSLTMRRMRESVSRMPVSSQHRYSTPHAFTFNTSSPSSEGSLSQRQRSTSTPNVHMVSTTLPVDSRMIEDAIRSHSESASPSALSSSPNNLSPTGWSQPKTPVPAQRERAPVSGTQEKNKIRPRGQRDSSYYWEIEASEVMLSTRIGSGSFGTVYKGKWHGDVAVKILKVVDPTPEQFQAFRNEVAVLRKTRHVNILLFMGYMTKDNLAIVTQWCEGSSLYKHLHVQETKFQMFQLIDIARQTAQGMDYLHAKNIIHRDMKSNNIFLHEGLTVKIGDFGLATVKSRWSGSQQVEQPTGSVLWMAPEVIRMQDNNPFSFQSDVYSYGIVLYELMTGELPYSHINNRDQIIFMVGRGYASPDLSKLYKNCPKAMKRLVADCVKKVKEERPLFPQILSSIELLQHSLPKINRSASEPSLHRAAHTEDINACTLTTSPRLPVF
Sequence of VEGFR-2 tyrosine kinase (KDR) (P35968 20-1356): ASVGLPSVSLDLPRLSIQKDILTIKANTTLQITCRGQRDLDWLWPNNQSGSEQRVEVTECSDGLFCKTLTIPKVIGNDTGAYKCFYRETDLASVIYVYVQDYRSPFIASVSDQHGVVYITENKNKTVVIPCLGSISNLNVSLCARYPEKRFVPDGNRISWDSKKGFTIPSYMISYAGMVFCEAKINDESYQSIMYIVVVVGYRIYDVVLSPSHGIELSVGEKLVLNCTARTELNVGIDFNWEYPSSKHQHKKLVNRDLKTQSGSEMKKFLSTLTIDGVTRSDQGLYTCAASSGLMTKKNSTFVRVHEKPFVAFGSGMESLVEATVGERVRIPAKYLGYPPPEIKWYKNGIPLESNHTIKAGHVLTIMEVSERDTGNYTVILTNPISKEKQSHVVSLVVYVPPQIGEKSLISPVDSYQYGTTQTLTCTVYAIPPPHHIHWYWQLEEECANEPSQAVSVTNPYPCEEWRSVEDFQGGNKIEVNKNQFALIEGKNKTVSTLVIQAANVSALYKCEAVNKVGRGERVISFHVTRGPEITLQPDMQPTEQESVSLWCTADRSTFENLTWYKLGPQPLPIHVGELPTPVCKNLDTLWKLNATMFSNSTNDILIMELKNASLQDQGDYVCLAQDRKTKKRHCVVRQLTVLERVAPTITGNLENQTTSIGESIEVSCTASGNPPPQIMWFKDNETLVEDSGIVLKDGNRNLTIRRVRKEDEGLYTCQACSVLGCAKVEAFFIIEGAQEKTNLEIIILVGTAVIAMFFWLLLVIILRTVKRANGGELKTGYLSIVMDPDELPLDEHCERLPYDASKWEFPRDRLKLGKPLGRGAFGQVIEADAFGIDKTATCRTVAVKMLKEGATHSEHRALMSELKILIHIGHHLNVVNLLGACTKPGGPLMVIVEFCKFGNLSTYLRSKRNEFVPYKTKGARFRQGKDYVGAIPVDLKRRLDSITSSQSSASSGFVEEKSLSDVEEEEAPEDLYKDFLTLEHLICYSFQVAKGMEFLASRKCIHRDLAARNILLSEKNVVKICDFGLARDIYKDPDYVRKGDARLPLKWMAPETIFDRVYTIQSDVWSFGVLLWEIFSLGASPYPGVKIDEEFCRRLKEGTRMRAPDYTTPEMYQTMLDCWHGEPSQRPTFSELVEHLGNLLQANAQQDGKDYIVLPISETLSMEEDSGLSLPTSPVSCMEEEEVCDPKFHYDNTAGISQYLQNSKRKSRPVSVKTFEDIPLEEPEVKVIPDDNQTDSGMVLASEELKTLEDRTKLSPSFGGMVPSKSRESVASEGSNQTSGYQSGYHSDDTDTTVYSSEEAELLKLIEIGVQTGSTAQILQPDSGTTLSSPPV

pIC50 [5]	SMILES	pIC50 (LS513 KRAS G12V (colon); Table 4)	pIC50 (LS513 KRAS G12V (colon); Table 5)	pIC50 (SW620 KRAS G12V (colon))	pIC50 [1]	pIC50 (WiDR BRAF V600E (colon))	pIC50 (HUVEC (VEGF))	pIC50 [2]	pIC50 (B-Raf V600E)	pIC50 (C-Raf)	pIC50 (B-Raf)	pIC50 [3]	antitumor effect (tumor growth inhibition) compared to the control group ([4]; 30 mg/kg)	antitumor effect (tumor growth inhibition) compared to the control group ([4]; 60 mg/kg) [%]	antitumor effect (tumor growth inhibition) compared to the vehicle control ([4]; 60 mg/kg or 30 mg/kg (dose not specified per compound)) [%]	antitumor effect (tumor growth inhibition) ([6]; 12.5 mg/kg, 21 days) [%]	antitumor effect (tumor growth inhibition) ([6]; 25 mg/kg, 21 days) [%]	antitumor effect (tumor growth inhibition) ([6]; 50 mg/kg, 21 days) [%]	antitumor effect (tumor growth inhibition) ([6]; 50 mg/kg, once a day, 13 days) [%]
–	O=C(Nc1ccc(F)c(Nc2ncccc2-c2ncnc3[nH]cnc23)c1F)c1cccc(C(F)(F)F)c1 [Example 1, N-(3-(3-(9H-purin-6-yl)pyridin-2-ylamino)-2,4-difluorophenyl)-3-(trifluoromethyl)benzamide]	5.93	6.56	6.07	7.02	6.94	7.66	7.00	7.80	7.64	7.47	–	–	–	–	–	–	–	–
–	CC(C)(C#N)c1cccc(C(=O)Nc2ccc(F)c(Nc3ncccc3-c3ncnc4[nH]cnc34)c2F)c1 [Example 9, N-(3-(3-(9H-purin-6-yl)pyridin-2-ylamino)-2,4-difluorophenyl)-3-(2-cyanopropan-2-yl)benzamide]	6.18	6.86	6.19	7.40	7.24	7.36	7.12	9.70	9.22	8.70	6.97	–	–	–	–	–	–	–
–	CC(C)(C#N)c1cccc(C(=O)Nc2cc(Nc3ncccc3-c3ncnc4[nH]cnc34)ccc2F)c1 [Example 21, N-(5-(3-(9H-purin-6-yl)pyridin-2-ylamino)-2-fluorophenyl)-3-(2-cyanopropan-2-yl)benzamide]	6.48	6.80	6.60	7.62	7.55	7.40	7.20	8.00	8.00	7.68	6.89	about 66.7%	90.3	–	–	–	–	–
–	CC(C)(C#N)c1cccc(C(=O)Nc2cccc(Nc3ncccc3-c3ncnc4[nH]cnc34)c2)c1 [Example 23, N-(3-(3-(9H-purin-6-yl)pyridin-2-ylamino)phenyl)-3-(2-cyanopropan-2-yl)benzamide]	6.16	7.02	6.49	7.92	7.21	7.55	7.30	8.15	8.10	7.77	7.24	–	–	–	–	–	–	–
–	O=C(Nc1cc(Nc2ncccc2-c2ncnc3[nH]cnc23)ccc1F)c1cccc(C(F)(F)F)c1 [Example 30, N-(5-(3-(9H-Purin-6-Yl)Pyridin-2-Ylamino)-2-Fluorophenyl)-3-(Trifluoromethyl)Benzamide]	6.84	7.10	6.06	6.61	6.20	7.89	6.84	8.28	9.15	8.57	6.91	76.9%	88.7	–	–	–	–	–
–	O=C(Nc1cc(Nc2ncccc2-c2ncnc3[nH]cnc23)ccc1F)c1cc(F)cc(C(F)(F)F)c1 [Example 36, N-(5-(3-(9H-Purin-6-Yl)Pyridin-2-Ylamino)-2-Fluorophenyl)-3-Fluoro-5-(Trifluoromethyl)Benzamide]	6.60	6.90	6.17	6.57	6.19	7.82	6.93	7.52	7.39	7.15	6.41	–	–	78.5	–	–	–	–
–	COc1ccc(C(=O)Nc2ccc(F)c(Nc3ncccc3-c3ncnc4[nH]cnc34)c2F)cc1 [Example 53, N-(3-(3-(9H-Purin-6-Yl)Pyridin-2-Ylamino)-2,4-Difluorophenyl)-4-Methoxybenzamide]	< 5.00	7.54	6.74	8.40	6.41	8.24	7.77	8.22	8.15	7.85	7.46	–	–	–	–	–	–	–
5.80	Cc1ccc(NC(=O)c2cccc(C(F)(F)F)c2)cc1Nc1ncccc1-c1ncnc2[nH]cnc12 [Example 71, N-4-Methyl-5-[3-(9H-Purin-6-Yl)Pyridin-2-Ylamino)Phenyl-3-Trifluoromethylbenzamide]	6.25	–	–	–	–	–	–	–	–	–	–	–	–	–	–	–	–	–
–	O=C(Nc1cc(Nc2ncccc2-c2ncnc3[nH]cnc23)ccc1F)c1cc(Cl)cc(C(F)(F)F)c1 [Example 135, N-5-[(3-(9H-purin-6-yl)pyridin-2-yl)amino]-2-fluorophenyl-3-chloro-5-(trifluoromethyl)benzamide]	7.10	7.06	6.50	–	7.17	6.13	7.13	7.07	7.47	6.79	–	–	–	–	52.36	74.73	86.85	92.66
